What was measured:
CYP2C19 = molecular target: T1, CYP2C19 (Homo sapiens, UniProt P33261); assay: CYP inhibition; type: in vitro ADME; conditions: expressed in E. coli membranes, substrate 5-mephenyloin, LC-MS-MS; read-out: Mean pIC50 CYP2C19 (converted)
T1 construct: made in house; host or cells: E. coli (membranes)
Experimental: (§1) The five major human hepatic Cytochrome P450 isoforms, 1A2, 2C9, 2C19, 2D6 and 3A4 were heterologously expressed in E. coli membranes. Each of the five CYPs were incubated with a cocktail of specific substrates; phenacetin, diclofenac, 5-mephenyloin, bufuralol and midazolam, which are predominantly metabolised by CYP 1A2, 2C9, 2C19, 2D6 and 3A4 respectively plus the test compound.
(§2) The substrates were incubated, at concentrations equivalent to their respective Km values, and LC-MS-MS (MRM mode) was used in order to follow the formation of their specific metabolites. The ability of the test compound to inhibit the CYP isoforms was determined by following any decrease in the amount of the specific metabolites formed at six different inhibitor concentrations.
(§3) The rates of reaction were calculated by measuring MS/MS area units and data analysis was performed by linearising the data using a pseudo Hill plot. The IC50 ie the concentration of the test compound that decreases the amount of metabolite formed by 50% was determined.

CYP2D6 = molecular target: T2, CYP2D6 (Homo sapiens, UniProt P10635); assay: CYP inhibition; type: in vitro ADME; conditions: expressed in E. coli membranes, substrate bufuralol, LC-MS-MS; read-out: Mean pIC50 CYP2D6 (converted)
T2 construct: made in house; host or cells: E. coli (membranes)
T2 sequence (P10635 whole entry): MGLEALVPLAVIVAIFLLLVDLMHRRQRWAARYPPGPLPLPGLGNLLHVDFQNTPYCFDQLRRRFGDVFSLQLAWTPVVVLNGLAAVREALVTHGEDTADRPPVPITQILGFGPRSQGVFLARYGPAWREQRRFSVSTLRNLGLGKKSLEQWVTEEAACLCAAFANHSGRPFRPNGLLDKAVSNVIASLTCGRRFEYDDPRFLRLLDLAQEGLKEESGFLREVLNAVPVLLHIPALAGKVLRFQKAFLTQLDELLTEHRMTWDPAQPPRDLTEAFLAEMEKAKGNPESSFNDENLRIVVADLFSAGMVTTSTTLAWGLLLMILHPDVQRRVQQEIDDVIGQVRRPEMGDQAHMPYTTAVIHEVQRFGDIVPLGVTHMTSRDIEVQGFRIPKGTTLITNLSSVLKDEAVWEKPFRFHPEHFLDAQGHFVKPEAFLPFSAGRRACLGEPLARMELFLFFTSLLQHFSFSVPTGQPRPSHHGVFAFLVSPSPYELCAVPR
Experimental: as §1, §2, §3

CYP3A4 = molecular target: T3, CYP3A4 (Homo sapiens, UniProt P08684); assay: CYP inhibition; type: in vitro ADME; conditions: expressed in E. coli membranes, substrate midazolam, LC-MS-MS; read-out: Mean pIC50 CYP3A4 (converted)
T3 construct: made in house; host or cells: E. coli (membranes)
T3 sequence (P08684 whole entry): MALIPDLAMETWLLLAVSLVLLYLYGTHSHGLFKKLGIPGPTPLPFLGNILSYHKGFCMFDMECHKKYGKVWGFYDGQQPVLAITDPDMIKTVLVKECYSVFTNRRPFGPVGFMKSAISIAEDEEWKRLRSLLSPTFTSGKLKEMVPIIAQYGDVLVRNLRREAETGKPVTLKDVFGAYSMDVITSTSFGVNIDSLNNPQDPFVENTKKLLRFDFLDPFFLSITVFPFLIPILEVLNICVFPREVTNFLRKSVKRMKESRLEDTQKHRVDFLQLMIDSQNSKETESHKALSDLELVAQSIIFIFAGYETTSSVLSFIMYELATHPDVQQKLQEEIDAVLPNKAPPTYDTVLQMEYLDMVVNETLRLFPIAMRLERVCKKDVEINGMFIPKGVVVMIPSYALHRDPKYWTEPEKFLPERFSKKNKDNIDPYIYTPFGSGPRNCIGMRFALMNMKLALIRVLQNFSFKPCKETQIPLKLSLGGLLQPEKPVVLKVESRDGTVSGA
Experimental: as §1, §2, §3

CYP2C9 = molecular target: T4, CYP2C9 (Homo sapiens, UniProt P11712); assay: CYP inhibition; type: in vitro ADME; conditions: expressed in E. coli membranes, substrate diclofenac, LC-MS-MS; read-out: Mean pIC50 CYP2C9 (converted)
T4 construct: made in house; host or cells: E. coli (membranes)
T4 sequence (P11712 whole entry): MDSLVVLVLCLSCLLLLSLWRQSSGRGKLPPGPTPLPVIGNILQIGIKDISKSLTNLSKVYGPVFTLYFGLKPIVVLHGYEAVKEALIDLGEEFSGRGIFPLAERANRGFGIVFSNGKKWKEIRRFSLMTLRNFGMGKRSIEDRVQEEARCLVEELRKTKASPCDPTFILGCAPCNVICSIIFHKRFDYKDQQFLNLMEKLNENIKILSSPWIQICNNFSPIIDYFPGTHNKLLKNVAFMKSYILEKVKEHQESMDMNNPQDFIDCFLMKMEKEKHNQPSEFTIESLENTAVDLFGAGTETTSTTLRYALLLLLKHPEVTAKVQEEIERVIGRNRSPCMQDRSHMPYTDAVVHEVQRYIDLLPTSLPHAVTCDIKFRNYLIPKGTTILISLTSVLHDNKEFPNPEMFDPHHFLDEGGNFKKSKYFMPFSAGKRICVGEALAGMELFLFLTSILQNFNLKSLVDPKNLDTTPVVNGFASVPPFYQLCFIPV
Experimental: as §1, §2, §3

CYP1A2 = molecular target: T5, CYP1A2 (Homo sapiens, UniProt P05177); assay: CYP inhibition; type: in vitro ADME; conditions: expressed in E. coli membranes, substrate phenacetin, LC-MS-MS; read-out: Mean pIC50 CYP1A2 (converted)
T5 construct: made in house; host or cells: E. coli (membranes)
T5 sequence (P05177 1-516): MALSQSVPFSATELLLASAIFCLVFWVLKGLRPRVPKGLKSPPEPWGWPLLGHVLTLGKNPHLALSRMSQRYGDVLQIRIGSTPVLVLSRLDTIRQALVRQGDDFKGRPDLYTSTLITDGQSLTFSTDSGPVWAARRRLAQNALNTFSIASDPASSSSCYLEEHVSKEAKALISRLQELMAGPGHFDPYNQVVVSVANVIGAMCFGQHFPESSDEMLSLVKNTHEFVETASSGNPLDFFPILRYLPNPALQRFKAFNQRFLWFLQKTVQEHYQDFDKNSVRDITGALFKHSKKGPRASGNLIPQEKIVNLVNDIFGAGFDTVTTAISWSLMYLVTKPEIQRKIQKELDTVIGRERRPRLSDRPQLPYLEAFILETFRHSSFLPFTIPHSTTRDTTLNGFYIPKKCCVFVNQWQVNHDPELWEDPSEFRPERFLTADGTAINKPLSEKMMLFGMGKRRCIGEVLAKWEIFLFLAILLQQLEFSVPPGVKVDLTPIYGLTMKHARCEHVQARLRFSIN
Experimental: as §1, §2, §3

human TLR7 = molecular target: T6, human TLR7 (Homo sapiens, UniProt Q9NYK1); assay: Human TLR7 assay (SEAP reporter in HEK293 cells); type: cell-based; conditions: HEK293 cells expressing recombinant human TLR7, overnight incubation at 37° C., 0.1% DMSO; read-out: mean pEC50 (SEAP induction) (converted)
T6 construct: expressed in transfected cells; host or cells: HEK293 stably expressing pNiFty2-SEAP reporter; TLR7 in pUNO vector
T6 sequence (Q9NYK1 27-1049): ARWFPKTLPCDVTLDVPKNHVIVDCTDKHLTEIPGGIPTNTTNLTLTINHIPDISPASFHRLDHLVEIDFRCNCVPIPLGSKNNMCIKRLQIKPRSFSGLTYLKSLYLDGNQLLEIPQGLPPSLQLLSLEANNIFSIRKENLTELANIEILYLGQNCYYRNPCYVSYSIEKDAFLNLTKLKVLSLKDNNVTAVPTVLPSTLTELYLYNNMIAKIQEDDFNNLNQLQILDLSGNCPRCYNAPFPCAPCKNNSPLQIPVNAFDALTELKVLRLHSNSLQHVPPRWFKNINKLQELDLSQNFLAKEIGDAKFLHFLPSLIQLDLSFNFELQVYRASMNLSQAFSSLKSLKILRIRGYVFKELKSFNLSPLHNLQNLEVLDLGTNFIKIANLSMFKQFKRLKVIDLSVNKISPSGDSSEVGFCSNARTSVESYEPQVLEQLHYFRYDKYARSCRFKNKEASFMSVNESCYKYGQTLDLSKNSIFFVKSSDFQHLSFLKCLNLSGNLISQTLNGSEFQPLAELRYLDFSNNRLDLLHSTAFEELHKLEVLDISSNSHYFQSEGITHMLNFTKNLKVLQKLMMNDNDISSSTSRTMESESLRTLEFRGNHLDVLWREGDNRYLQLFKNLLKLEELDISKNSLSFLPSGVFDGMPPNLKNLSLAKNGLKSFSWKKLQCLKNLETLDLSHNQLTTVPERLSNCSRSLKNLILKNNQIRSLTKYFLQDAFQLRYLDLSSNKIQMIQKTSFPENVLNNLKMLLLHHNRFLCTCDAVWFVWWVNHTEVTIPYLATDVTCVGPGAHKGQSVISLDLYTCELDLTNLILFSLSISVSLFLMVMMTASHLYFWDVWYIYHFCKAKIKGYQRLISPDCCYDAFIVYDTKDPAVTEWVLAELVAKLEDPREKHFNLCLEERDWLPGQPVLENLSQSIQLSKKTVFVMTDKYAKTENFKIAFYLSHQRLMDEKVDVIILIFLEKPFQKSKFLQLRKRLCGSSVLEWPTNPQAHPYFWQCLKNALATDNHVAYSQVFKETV
From the text: Recombinant human TLR7 was stably expressed in a HEK293 cell line already stably expressing the pNiFty2-SEAP reporter plasmid; integration of the reporter gene was maintained by selection with the antibiotic zeocin. The most common variant sequence of human TLR7 (represented by the EMBL sequence AF240467) was cloned into the mammalian cell expression vector pUNO and transfected into this reporter cell-line. Transfectants with stable expression were selected using the antibiotic blasticidin. In this reporter cell-line, expression of secreted alkaline phosphatase (SEAP) is controlled by an NFkB/ELAM-1 composite promoter comprising five NFkB sites combined with the proximal ELAM-1 promoter. TLR signaling leads to the translocation of NFkB and activation of the promoter results in expression of the SEAP gene. TLR7-specific activation was assessed by determining the level of SEAP produced following overnight incubation of the cells at 37° C. with the standard compound in the presence of 0.1% (v/v) dimethylsulfoxide (DMSO). […] Human Skin Cytokine Production

Human plasma stability = type: in vitro ADME; conditions: 37° C.
Experimental: To determine the half life of the test compound in human plasma, incubations were performed at 37° C. in a shaking water bath. Compound (5 μl of 100 μM stock in MeCN) was spiked into 0.495 mL plasma to give final incubation concentration of 1 μM. Aliquots (50 μl) were withdrawn at various time points (typically 0, 20 & 40 sec, 1, 2, 3, 5 & 10 mins) and quenched into MeCN ([…]) followed by analysis for parent compound by LC-MS-MS (MRM mode). The half life was calculated from the decline of test compound peak area over time. • Example 1 (Compound (I)) gave a half life of 0.6 minutes (n=1). • Comparative Example 1 gave a half life of 0.2 minutes (n=1).

[1] = system: interleukin-13 (IL-13) production in human skin biopsies; assay: Human skin cytokine production (PHA-induced IL-13 in skin biopsies); type: cell-based; conditions: PHA-stimulated human skin biopsies, 24 hours
Experimental: Normal human skin biopsies were obtained, with informed consent, from healthy patients undergoing surgical cosmetic procedures. 3 mm full thickness skin biopsies were taken using a biopsy punch. A hole was cut in a Transwell filter (pore size 0.4 μm) using a punch and the skin biopsy inserted in the hole. The filter containing the biopsy was placed in the well of a 24-well culture plate containing 1.25 ml of culture medium (RPMI containing 1% heat-inactivated human serum) with the epidermis facing upwards at the liquid-air interface. Culture plates containing the biopsies were incubated at 37° C., in an atmosphere of 5% CO2 in air, for 24 hours. Biopsies were cultured in the absence or presence of phytohaemagglutinin (PHA) (1 mg/ml) added to the culture medium to induce a cytokine response in the tissue.

[2] = Maximal solubility in phosphate citrate buffer pH 3.0; type: physicochemical
[3] = compound applied topically at 1/10 max. solubility
[4] = compound applied topically at max. solubility

T1 sequence (P33261 whole entry): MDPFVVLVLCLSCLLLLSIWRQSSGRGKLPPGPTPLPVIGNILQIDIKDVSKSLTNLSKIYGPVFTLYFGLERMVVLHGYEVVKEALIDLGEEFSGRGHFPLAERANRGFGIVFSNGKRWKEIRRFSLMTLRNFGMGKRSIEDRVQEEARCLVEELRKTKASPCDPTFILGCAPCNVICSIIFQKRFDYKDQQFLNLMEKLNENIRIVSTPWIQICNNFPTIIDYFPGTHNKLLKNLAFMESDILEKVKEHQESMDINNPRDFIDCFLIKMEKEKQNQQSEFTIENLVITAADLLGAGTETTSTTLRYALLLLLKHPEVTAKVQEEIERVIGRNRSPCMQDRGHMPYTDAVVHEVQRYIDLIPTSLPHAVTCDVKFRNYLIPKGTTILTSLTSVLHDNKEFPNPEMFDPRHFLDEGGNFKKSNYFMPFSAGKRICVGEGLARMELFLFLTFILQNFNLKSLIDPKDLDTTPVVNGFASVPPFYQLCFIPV

Row | Structure (SMILES) | IC50 (CYP2C19) [µM] | IC50 (CYP2D6) [µM] | IC50 (CYP3A4) [µM] | IC50 (CYP2C9) [µM] | IC50 (CYP1A2) [µM] | EC50 (human TLR7) [µM] | half-life at 1 μM (Human plasma stability) [s] | % Inhibition of response [1, 3] [%] | IL-13 (pg/ml) Mean ± SEM [1, 3] [pg/mL] | % Inhibition of response [1, 4] [%] | IL-13 (pg/ml) Mean ± SEM [1, 4] [pg/mL] | maximal solubility in phosphate citrate buffer pH 3.0 [2]
1 | CCCCOc1nc(N)c2[nH]c(=O)n(CCCN(CCCN3CCCCC3)Cc3cccc(CC(=O)OC)c3)c2n1 [Comparative Example 1, Methyl [3-({[3-(6-amino-2-butoxy-8-oxo-7,8-dihydro-9H-purin-9-yl)propyl][3-(piperidin-1-yl)propyl]amino}methyl)phenyl]acetate, reference compound] | > 30.2 | 13.5 | 0.0132 | > 29.5 | > 30.2 | 0.158 | 12 | – | – | – | – | –
2 | CCCCOc1nc(N)c2[nH]c(=O)n(CCCN(CCCN3CCCCC3)Cc3ccc(CC(=O)OC)cc3)c2n1 [Example 1, Methyl [4-({[3-(6-amino-2-butoxy-8-oxo-7,8-dihydro-9H-purin-9-yl)propyl][3-(piperidin-1-yl)propyl]amino}methyl)phenyl]acetate] | > 3.02 | > 3.02 | 0.468 | > 3.02 | > 3.02 | 0.251 | 36 | 55 | 4.8 ± 0.8 | 87 | 1.9 ± 0.8 | 4.1-4.4 % w/w

— patent US8895570B2, “Purine derivatives” (AstraZeneca AB, priority 2010, dated 2014)
